{"source": "patent US4327097A", "about": "“Novel penicillins” (Toyama Chemical Co., Ltd., priority 1974, dated 1982)", "key": {"[1]": {"system": "Staphylococcus aureus 209p", "test": "MIC, plate method, standard strains", "format": "cell-based", "conditions": "unit assumed", "procedure": "(§1) The minimum inhibitory concentration (MIC) was determined by the plate method disclosed in \"Chemotherapy\" (Japan), Vol. 16, (1968), pages 98-99. The culture medium used was a Heart infusion agar (pH 7.4). The number of the cells per plate used in the inoculum was 10^4 (10^6 cells/ml)."}, "[2]": {"system": "Pseudomonas aeruginosa I.F.O.", "test": "MIC, plate method, standard strains", "format": "cell-based", "conditions": "unit assumed; for MIC Pseudomonas aeruginosa I.F.C: Table 3, standard strain; for MIC Pseudomonas aeruginosa I.F.O.: Table 4, standard strain", "procedure": "as §1"}, "Proteus vulgaris 3027": {"system": "Proteus vulgaris 3027", "test": "MIC, plate method, standard strains", "format": "cell-based", "conditions": "unit assumed", "procedure": "as §1"}, "Klebsiella pneumoniae [3]": {"system": "Klebsiella pneumoniae", "test": "MIC, plate method, standard strains", "format": "cell-based", "conditions": "unit assumed", "procedure": "as §1"}, "Escherichia coli NIHJ": {"system": "Escherichia coli NIHJ", "test": "MIC, plate method, standard strains", "format": "cell-based", "conditions": "unit assumed; for MIC Esche--richin coil NIHJ: Table 3, standard strain; for MIC Escherichia coli NIHJ: Table 4, standard strain", "procedure": "as §1"}, "[4]": {"system": "β-lactamase, Pseudomonas aeruginosa GN 238", "test": "Resistant activity against β-lactamase, iodometric assay", "format": "biochemical", "conditions": "β-lactamase from Pseudomonas aeruginosa GN 238; Potassium Penicillin G = 100", "procedure": "(3) Resistant activity against β-lactamase, Pseudomonas aerugionsa GN 238:\nThe resistant activity of each compound against β-lactamase was measured in the manner described below.\nβ-Lactamase was prepared from Pseudomonas aeruginosa GN 238. This microorganism was cultured in 100 ml of a medium containing 2 g of yeast extract, 10 g of polypeptone, 2 g of glucose, 7 g of disodium hydrogen phosphate, 2 g of potassium dihydrogen phosphate, 1.2 g of ammonium sulfate and 0.4 g of magnesium sulfate, per liter, in a 500-ml Erlenmeyer flask for 6 hrs. at 37° C. with shaking. The resulting cells were collected by centrifugation (5,000 r.p.m.×10 min.), washed three times with 0.1 M phosphate buffer (pH 7.0). Subsequently, the cells were subjected to sonication (20 KHz, 20 min.) and then centrifuged at 15,000 r.p.m. for 60 min. By using the supernatant of enzyme fluid, the resistance of each compound against β-lactamase was determined by the iodometric assay method. Each numeral shown in Table 7 is a relative activity value calculated by assuming as 100 the activity of the control Potassium Penicillin G."}, "Escherichia coli": {"system": "Escherichia coli", "test": "MIC against clinical isolates", "format": "cell-based", "conditions": "Table 5-2, clinical isolate; unit assumed"}, "Staphylococcus aureus": {"system": "Staphylococcus aureus", "test": "MIC against clinical isolates", "format": "cell-based", "conditions": "Table 5-1, clinical isolate; unit assumed"}, "Shigella sonnei": {"system": "Shigella sonnei", "test": "MIC against clinical isolates", "format": "cell-based", "conditions": "Table 5-5, clinical isolate; unit assumed", "procedure": "as §1\n(§2) MIC was determined in the same manner as in the preceding paragraph (1)."}, "Shigella flexneri": {"system": "Shigella flexneri", "test": "MIC against clinical isolates", "format": "cell-based", "conditions": "Table 5-5, clinical isolate; unit assumed", "procedure": "as §1, §2"}, "Pseudomonas aeruginosa": {"system": "Pseudomonas aeruginosa", "test": "MIC against clinical isolates", "format": "cell-based", "conditions": "Table 5-3, clinical isolate; unit assumed"}, "Klebsiella pneumoniae [5]": {"system": "Klebsiella pneumoniae", "test": "MIC against clinical isolates", "format": "cell-based", "conditions": "Table 5-4, clinical isolate; unit assumed"}, "[6]": {"conditions": "Table 3, standard strain, Heart infusion agar pH 7.4"}}}
{"smiles": "CC1(C)SC2C(NC(=O)C(NC(=O)N3CCN(CCCl)C(=O)C3=O)c3ccccc3)C(=O)N2C1C(=O)O", "note": "(single isomer, unassigned) [Compound 44]", "values": [{"measurement": "MIC Staphylococcus aureus 209p", "setting": "[1]; [6]", "result": "< 1.57", "unit": "µg/mL"}, {"measurement": "MIC Pseudomonas aeruginosa I.F.C", "setting": "[2]", "result": 6.25, "unit": "µg/mL"}, {"measurement": "MIC Proteus vulgaris 3027", "setting": "Proteus vulgaris 3027; Table 3, standard strain", "result": "< 1.57", "unit": "µg/mL"}, {"measurement": "MIC Klebsiella pneumoniae", "setting": "Klebsiella pneumoniae [3]; Table 3, standard strain", "result": "< 1.57", "unit": "µg/mL"}, {"measurement": "MIC Esche--richin coil NIHJ", "setting": "Escherichia coli NIHJ", "result": "< 1.57", "unit": "µg/mL"}]}
{"smiles": "Cc1csc(SCC2=C(C(=O)O)N3C(=O)C(NC(=O)C(NC(=O)N4CCN(C)C(=O)C4=O)c4ccccc4)C3SC2)n1", "note": "(single isomer, unassigned) [compound 71]", "values": [{"measurement": "MIC Staphylococcus aureus 209p", "setting": "[1]; Table 4, standard strain", "result": "< 0.79", "unit": "µg/mL"}, {"measurement": "MIC Pseudomonas aeruginosa I.F.O.", "setting": "[2]", "result": 50, "unit": "µg/mL"}, {"measurement": "MIC Proteus vulgaris 3027", "setting": "Proteus vulgaris 3027; Table 4, standard strain", "result": "< 0.79", "unit": "µg/mL"}, {"measurement": "MIC Klebsiella pneumoniae", "setting": "Klebsiella pneumoniae [3]; Table 4, standard strain", "result": 1.56, "unit": "µg/mL"}, {"measurement": "MIC Escherichia coli NIHJ", "setting": "Escherichia coli NIHJ", "result": "< 0.79", "unit": "µg/mL"}]}
{"smiles": "CCN1CCN(C(=O)NC(C(=O)NC2C(=O)N3C(C(=O)O)=C(CSc4cnn[nH]4)CSC23)c2ccccc2)C(=O)C1=O", "note": "(single isomer, unassigned) [compound 75]", "values": [{"measurement": "MIC Staphylococcus aureus 209p", "setting": "[1]; Table 4, standard strain", "result": 1.57, "unit": "µg/mL"}, {"measurement": "MIC Pseudomonas aeruginosa I.F.O.", "setting": "[2]", "result": 50, "unit": "µg/mL"}, {"measurement": "MIC Proteus vulgaris 3027", "setting": "Proteus vulgaris 3027; Table 4, standard strain", "result": 12.5, "unit": "µg/mL"}, {"measurement": "MIC Klebsiella pneumoniae", "setting": "Klebsiella pneumoniae [3]; Table 4, standard strain", "result": 1.57, "unit": "µg/mL"}, {"measurement": "MIC Escherichia coli NIHJ", "setting": "Escherichia coli NIHJ", "result": "< 0.4", "unit": "µg/mL"}]}
{"smiles": "CCN1CCN(C(=O)NC(C(=O)NC2C(=O)N3C(C(=O)O)=C(COC)CSC23)c2ccccc2)C(=O)C1=O", "note": "(single isomer, unassigned) [compound 80]", "values": [{"measurement": "MIC Staphylococcus aureus 209p", "setting": "[1]; Table 4, standard strain", "result": 0.79, "unit": "µg/mL"}, {"measurement": "MIC Pseudomonas aeruginosa I.F.O.", "setting": "[2]", "result": 50, "unit": "µg/mL"}, {"measurement": "MIC Proteus vulgaris 3027", "setting": "Proteus vulgaris 3027; Table 4, standard strain", "result": 6.25, "unit": "µg/mL"}, {"measurement": "MIC Klebsiella pneumoniae", "setting": "Klebsiella pneumoniae [3]; Table 4, standard strain", "result": 3.13, "unit": "µg/mL"}, {"measurement": "MIC Escherichia coli NIHJ", "setting": "Escherichia coli NIHJ", "result": "< 0.1", "unit": "µg/mL"}]}
{"smiles": "Cn1nnnc1SCC1=C(C(=O)O)N2C(=O)C(NC(=O)C(NC(=O)N3CCN(CCO)C(=O)C3=O)c3ccc(O)cc3)C2SC1", "note": "(single isomer, unassigned) [compound 83]", "values": [{"measurement": "MIC Staphylococcus aureus 209p", "setting": "[1]; Table 4, standard strain", "result": 1.57, "unit": "µg/mL"}, {"measurement": "MIC Pseudomonas aeruginosa I.F.O.", "setting": "[2]", "result": 25, "unit": "µg/mL"}, {"measurement": "MIC Proteus vulgaris 3027", "setting": "Proteus vulgaris 3027; Table 4, standard strain", "result": "< 1.57", "unit": "µg/mL"}, {"measurement": "MIC Klebsiella pneumoniae", "setting": "Klebsiella pneumoniae [3]; Table 4, standard strain", "result": "< 1.57", "unit": "µg/mL"}, {"measurement": "MIC Escherichia coli NIHJ", "setting": "Escherichia coli NIHJ", "result": "< 1.57", "unit": "µg/mL"}]}
{"smiles": "CCCCCCCCN1CCN(C(=O)N[C@@H](C(=O)N[C@@H]2C(=O)N3[C@@H]2SC(C)(C)[C@@H]3C(=O)O)c2ccccc2)CC1=O", "note": "[Compound 30]", "values": [{"measurement": "Relative activity (%), resistant activity against β-lactamase", "setting": "[4]", "result": 3, "unit": "%"}]}
{"smiles": "CCN1CCN(C(=O)N[C@@H](C(=O)N[C@@H]2C(=O)N3[C@@H]2SC(C)(C)[C@@H]3C(=O)O)c2ccccc2)C(=O)C1=O", "note": "[Compound 36]", "values": [{"measurement": "MIC Escherichia coli GN 3435", "setting": "Escherichia coli", "result": 1.57, "unit": "µg/mL"}, {"measurement": "MIC Escherichia coli GN 3452", "setting": "Escherichia coli", "result": 3.13, "unit": "µg/mL"}, {"measurement": "MIC Escherichia coli GN 3481", "setting": "Escherichia coli", "result": 3.13, "unit": "µg/mL"}, {"measurement": "MIC Escherichia coli K-1", "setting": "Escherichia coli", "result": 3.13, "unit": "µg/mL"}, {"measurement": "MIC Escherichia coli K-2", "setting": "Escherichia coli", "result": 3.13, "unit": "µg/mL"}, {"measurement": "MIC Escherichia coli K-4", "setting": "Escherichia coli", "result": 1.57, "unit": "µg/mL"}, {"measurement": "MIC Staphylococcus aureus F-2", "setting": "Staphylococcus aureus", "result": 3.13, "unit": "µg/mL"}, {"measurement": "MIC Staphylococcus aureus F-3", "setting": "Staphylococcus aureus", "result": 1.57, "unit": "µg/mL"}, {"measurement": "MIC Staphylococcus aureus F-4", "setting": "Staphylococcus aureus", "result": 6.25, "unit": "µg/mL"}, {"measurement": "MIC Staphylococcus aureus MS 8588", "setting": "Staphylococcus aureus", "result": 3.13, "unit": "µg/mL"}, {"measurement": "MIC Staphylococcus aureus MS 8596", "setting": "Staphylococcus aureus", "result": 3.13, "unit": "µg/mL"}, {"measurement": "MIC Staphylococcus aureus MS 8684", "setting": "Staphylococcus aureus", "result": 3.13, "unit": "µg/mL"}, {"measurement": "MIC Staphylococcus aureus MS 8713", "setting": "Staphylococcus aureus", "result": 6.25, "unit": "µg/mL"}, {"measurement": "MIC Shigella sonnei JS 11232", "setting": "Shigella sonnei", "result": 50, "unit": "µg/mL"}, {"measurement": "MIC Shigella sonnei JS 11755", "setting": "Shigella sonnei", "result": 3.13, "unit": "µg/mL"}, {"measurement": "MIC Shigella flexneri JS 11215", "setting": "Shigella flexneri", "result": 100, "unit": "µg/mL"}, {"measurement": "MIC Shigella flexneri JS 11839", "setting": "Shigella flexneri", "result": 3.13, "unit": "µg/mL"}, {"measurement": "MIC Pseudomonas aeruginosa GN 82", "setting": "Pseudomonas aeruginosa", "result": 6.25, "unit": "µg/mL"}, {"measurement": "MIC Pseudomonas aeruginosa GN 163", "setting": "Pseudomonas aeruginosa", "result": 6.25, "unit": "µg/mL"}, {"measurement": "MIC Pseudomonas aeruginosa GN 221", "setting": "Pseudomonas aeruginosa", "result": 3.13, "unit": "µg/mL"}, {"measurement": "MIC Pseudomonas aeruginosa GN 376", "setting": "Pseudomonas aeruginosa", "result": 6.25, "unit": "µg/mL"}, {"measurement": "MIC Pseudomonas aeruginosa GN 383", "setting": "Pseudomonas aeruginosa", "result": 6.25, "unit": "µg/mL"}, {"measurement": "MIC Pseudomonas aeruginosa GN 1091", "setting": "Pseudomonas aeruginosa", "result": 6.25, "unit": "µg/mL"}, {"measurement": "MIC Klebsiella pneumoniae GN 917", "setting": "Klebsiella pneumoniae [5]", "result": 6.25, "unit": "µg/mL"}, {"measurement": "MIC Staphylococcus aureus 209p", "setting": "[1]; [6]", "result": "< 1.57", "unit": "µg/mL"}, {"measurement": "MIC Pseudomonas aeruginosa I.F.C", "setting": "[2]", "result": 6.25, "unit": "µg/mL"}, {"measurement": "MIC Proteus vulgaris 3027", "setting": "Proteus vulgaris 3027; Table 3, standard strain", "result": "< 1.57", "unit": "µg/mL"}, {"measurement": "MIC Klebsiella pneumoniae", "setting": "Klebsiella pneumoniae [3]; Table 3, standard strain", "result": "< 1.57", "unit": "µg/mL"}, {"measurement": "MIC Esche--richin coil NIHJ", "setting": "Escherichia coli NIHJ", "result": "< 1.57", "unit": "µg/mL"}, {"measurement": "Relative activity (%), resistant activity against β-lactamase", "setting": "[4]", "result": 14, "unit": "%"}]}
